In patent US20220137060A1, “FULL LENGTH KINASE ACTIVITY-CONFORMATION REPORTER” (UNIVERSITAT INNSBRUCK, priority 2016, published 2022):
“Also recorded” adds a separate entry of the source.

What was measured:
Assay type in all cases: cell-based
wild type BRAF [1] = biological target: T1, wild type BRAF (Homo sapiens, UniProt P15056); assay: Intramolecular Rluc PCA reporter F[1]-BRAF-F[2] (wild type), transiently transfected HEK293 cells; set-up: Renilla luciferase PCA fragment F[1]; Renilla luciferase PCA fragment F[2]; expressed in transfected cells; host or cells: HEK293 (transient, pcDNA3.1); conditions: for Effect on reporter luminescence signal: HEK293, 1 μM, 3 h treatments (FIG. 5A, 6A)
Procedure: (§1) Cell culture and antibodies. HEK293 and SW480 cells were grown in DMEM supplemented with 10% (vol/vol) FBS. Cells were passaged three times a week to keep the cells in culture. Transient transfections were performed with Transfectin reagent (Bio-Rad, #1703350). […] The primary antibody used was anti-BRAF(F-7) (Santa Cruiz Biotechnology, #sc-5284).
(§2) Expression constructs. The Rluc PCA hybrid proteins F[1]-BRAF-F[2] and F[1]-BRAF(V600E)-F[2] have been generated using the identical cloning approach. Following PCR amplification of the human BRAF or BRAF(V600E) gene, the coding region of the BRAF protein (SEQ ID No: 2 or 5) was fused N-terminally with F[1] (SEQ ID No: 13) and C-terminally with F[2] (SEQ ID No: 17) of the Rluc PCA coding region. In addition. the sequence of two interjacent 10-aa linkers (GGGGS)2 (SEQ ID No: 18) was integrated by cloning. As vector backbone we used the pcDNA3.1 plasmid. The MEK1 expression constructs (s. SEQ ID No: 23) and the Gluc PCA based BRAF reporter (s. SEQ ID No: 24) were prepared analogously.
(§3) Renilla/Gaussia luciferase PCA experiments. Cells were grown in DMEM supplemented with 10% FBS. Indicated versions of the Rluc PCA based biosensor were transiently overexpressed in 24-well plate format. 48 hours post-transfection, the growth medium was partially removed and different compounds added with concentrations as indicated in the figure legends. To measure the dose-dependent effect of the lead molecules (candidate compounds) on the intramolecular Rluc PCA reporter, the attached cells were treated with different concentrations and for different time-frames. The time-dependent consequences of the lead compounds on kinase conformations were recorded with a final compound concentration of 1 μM. For the Rluc PCA measurements the growth medium was carefully removed and the cells were washed with PBS. Cells were resuspended in PBS and the cell suspensions were transferred to 96-well plates and subjected to luminescence analysis using the LMaxTM-II-384 luminometer (Molecular Devices). Rluc luminescence signals were integrated for 10 seconds with a delay time of 3 seconds following addition of 20 μl of the Rluc substrate benzyl-coelenterazine (5 μM; Nanolight, #301) in PBS with a concentration of 25 nM. Dose-dependent effects of drug exposure on luminescence signals originating from BRAF conformations were compared using indicated controls. Cells were collected after PCA measurements and lysed with Laemmli sample buffer to control the protein expression levels. In case of Gluc reporters, coelenterazine was used as luminescence substrate.
Target sequence in this assay (P15056 with tags, fused parts or gaps): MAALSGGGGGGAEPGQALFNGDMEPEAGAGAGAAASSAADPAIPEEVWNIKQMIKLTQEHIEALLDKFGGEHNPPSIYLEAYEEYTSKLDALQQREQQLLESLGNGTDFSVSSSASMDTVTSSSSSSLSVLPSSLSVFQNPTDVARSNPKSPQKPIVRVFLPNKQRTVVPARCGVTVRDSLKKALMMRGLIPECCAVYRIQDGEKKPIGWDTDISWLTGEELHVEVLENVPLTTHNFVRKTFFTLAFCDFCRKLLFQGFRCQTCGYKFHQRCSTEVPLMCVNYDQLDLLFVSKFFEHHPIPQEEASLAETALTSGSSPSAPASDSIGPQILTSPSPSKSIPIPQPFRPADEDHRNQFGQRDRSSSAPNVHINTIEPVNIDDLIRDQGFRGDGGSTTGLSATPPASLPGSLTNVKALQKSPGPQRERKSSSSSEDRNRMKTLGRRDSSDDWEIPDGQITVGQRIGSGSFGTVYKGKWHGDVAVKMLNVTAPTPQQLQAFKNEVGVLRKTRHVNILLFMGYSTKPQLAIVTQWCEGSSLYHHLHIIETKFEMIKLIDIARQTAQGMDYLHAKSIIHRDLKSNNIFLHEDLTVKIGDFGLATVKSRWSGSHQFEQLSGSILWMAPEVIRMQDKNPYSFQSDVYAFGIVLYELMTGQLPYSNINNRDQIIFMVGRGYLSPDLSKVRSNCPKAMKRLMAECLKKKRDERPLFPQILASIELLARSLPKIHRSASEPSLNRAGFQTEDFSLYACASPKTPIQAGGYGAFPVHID

BRAF-V600E [2] = biological target: T2, BRAF-V600E (Homo sapiens, UniProt P15056, V600E); assay: Intramolecular Rluc PCA reporter F[1]-BRAF(V600E)-F[2], transiently transfected HEK293 cells; conditions: HEK293, 1 μM; for Effect on reporter bioluminescence signal / conformation: BRAF V600E reporter, 3 h treatments (FIG. 5B, 6B)
T2 construct: Renilla luciferase PCA fragment F[1]; Renilla luciferase PCA fragment F[2]; expressed in transfected cells; host or cells: HEK293 (transient, pcDNA3.1)
T2 sequence (P15056 with tags, fused parts or gaps V600E): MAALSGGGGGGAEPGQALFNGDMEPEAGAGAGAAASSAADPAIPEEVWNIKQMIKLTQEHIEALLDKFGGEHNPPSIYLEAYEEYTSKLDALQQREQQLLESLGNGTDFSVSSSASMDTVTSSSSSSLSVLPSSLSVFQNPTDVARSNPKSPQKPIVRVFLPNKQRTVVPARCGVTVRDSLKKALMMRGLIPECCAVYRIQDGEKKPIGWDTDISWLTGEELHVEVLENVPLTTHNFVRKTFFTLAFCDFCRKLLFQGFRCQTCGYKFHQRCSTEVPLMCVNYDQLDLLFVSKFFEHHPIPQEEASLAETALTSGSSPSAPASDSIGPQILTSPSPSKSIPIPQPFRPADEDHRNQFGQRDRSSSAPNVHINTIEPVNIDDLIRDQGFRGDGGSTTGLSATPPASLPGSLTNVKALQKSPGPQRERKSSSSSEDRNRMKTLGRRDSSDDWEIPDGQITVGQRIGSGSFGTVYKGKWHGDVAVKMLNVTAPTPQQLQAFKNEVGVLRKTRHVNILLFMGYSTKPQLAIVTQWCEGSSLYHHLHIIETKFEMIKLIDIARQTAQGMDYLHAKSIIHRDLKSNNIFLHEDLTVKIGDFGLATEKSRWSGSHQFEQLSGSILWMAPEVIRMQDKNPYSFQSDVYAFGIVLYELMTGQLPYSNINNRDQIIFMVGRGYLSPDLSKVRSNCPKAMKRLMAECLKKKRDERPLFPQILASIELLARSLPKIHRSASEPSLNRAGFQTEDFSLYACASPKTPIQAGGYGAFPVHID
Procedure: as §1, §2
Mutagenesis. Site directed mutagenesis have been performed to generate following mutations in the reporter constructs: V600E, V600K, V600R, D594G, and G469A in BRAF and S218A and the S218E/S222E double mutation in MEK1.
as §3

BRAF V600K = BRAF V600K (Homo sapiens, UniProt P15056, V600K); assay: Intramolecular Rluc PCA mutant BRAF reporter (V600K), transiently transfected HEK293 cells; conditions: HEK293, 1 μM, 3 h treatments (FIG. 5B)
BRAF V600K, sequence (P15056 with tags, fused parts or gaps V600K): as the sequence (P15056 with tags, fused parts or gaps V600E) above, with E600K counted along it
Procedure: as §1
(§4) Expression constructs. The Rluc PCA hybrid proteins F[1]-BRAF-F[2] and F[1]-BRAF(V600E)-F[2] have been generated using the identical cloning approach. Following PCR amplification of the human BRAF or BRAF(V600E) gene, the coding region of the BRAF protein (SEQ ID No: 2 or 5) was fused N-terminally with F[1] (SEQ ID No: 13) and C-terminally with F[2] (SEQ ID No: 17) of the Rluc PCA coding region. […]
(§5) Renilla/Gaussia luciferase PCA experiments. […] The time-dependent consequences of the lead compounds on kinase conformations were recorded with a final compound concentration of 1 μM. […] Cells were resuspended in PBS and the cell suspensions were transferred to 96-well plates and subjected to luminescence analysis using the LMaxTM-II-384 luminometer (Molecular Devices). Rluc luminescence signals were integrated for 10 seconds with a delay time of 3 seconds following addition of 20 μl of the Rluc substrate benzyl-coelenterazine (5 μM; Nanolight, #301) in PBS with a concentration of 25 nM. […] In case of Gluc reporters, coelenterazine was used as luminescence substrate.

BRAF G469A = BRAF G469A (Homo sapiens, UniProt P15056, G469A); assay: Intramolecular Rluc PCA mutant BRAF reporter (G469A), transiently transfected HEK293 cells; conditions: HEK293, 1 μM, 3 h treatments (FIG. 5B)
BRAF G469A, sequence (P15056 with tags, fused parts or gaps G469A): as the sequence (P15056 with tags, fused parts or gaps V600E) above, with G469A, E600V counted along it
Procedure: as §1, §4, §5

BRAF D594G = BRAF D594G (Homo sapiens, UniProt P15056, D594G); assay: Intramolecular Rluc PCA mutant BRAF reporter (D594G), transiently transfected HEK293 cells; conditions: HEK293, 1 μM, 3 h treatments (FIG. 5B)
BRAF D594G, sequence (P15056 with tags, fused parts or gaps D594G): as the sequence (P15056 with tags, fused parts or gaps V600E) above, with D594G, E600V counted along it
Procedure: as §1, §4, §5

BRAF-V600E [3] = biological target: T2, BRAF-V600E; assay: Intramolecular Gluc PCA reporter GlucF[1]-BRAF-V600E-GlucF[2], transiently transfected HEK293 cells; conditions: HEK293, 1 μM, 3 h treatments (FIG. 8)
Procedure: as §1, §4, §5

BRAF V600R = BRAF V600R (Homo sapiens, UniProt P15056, V600R); assay: Intramolecular Rluc PCA mutant BRAF reporter (V600R), transiently transfected HEK293 cells; conditions: HEK293, 1 μM, 3 h treatments (FIG. 5B)
BRAF V600R, sequence (P15056 with tags, fused parts or gaps V600R): as the sequence (P15056 with tags, fused parts or gaps V600E) above, with E600R counted along it
Procedure: as §1, §4, §5

wild type BRAF [4] = biological target: T1, wild type BRAF; assay: Intramolecular Gluc PCA reporter GlucF[1]-BRAF-GlucF[2] (wild type), transiently transfected HEK293 cells; conditions: HEK293, 1 μM, 3 h treatments (FIG. 8)
Procedure: as §1, §4, §5
Target sequence in this assay (P15056 with tags, fused parts or gaps): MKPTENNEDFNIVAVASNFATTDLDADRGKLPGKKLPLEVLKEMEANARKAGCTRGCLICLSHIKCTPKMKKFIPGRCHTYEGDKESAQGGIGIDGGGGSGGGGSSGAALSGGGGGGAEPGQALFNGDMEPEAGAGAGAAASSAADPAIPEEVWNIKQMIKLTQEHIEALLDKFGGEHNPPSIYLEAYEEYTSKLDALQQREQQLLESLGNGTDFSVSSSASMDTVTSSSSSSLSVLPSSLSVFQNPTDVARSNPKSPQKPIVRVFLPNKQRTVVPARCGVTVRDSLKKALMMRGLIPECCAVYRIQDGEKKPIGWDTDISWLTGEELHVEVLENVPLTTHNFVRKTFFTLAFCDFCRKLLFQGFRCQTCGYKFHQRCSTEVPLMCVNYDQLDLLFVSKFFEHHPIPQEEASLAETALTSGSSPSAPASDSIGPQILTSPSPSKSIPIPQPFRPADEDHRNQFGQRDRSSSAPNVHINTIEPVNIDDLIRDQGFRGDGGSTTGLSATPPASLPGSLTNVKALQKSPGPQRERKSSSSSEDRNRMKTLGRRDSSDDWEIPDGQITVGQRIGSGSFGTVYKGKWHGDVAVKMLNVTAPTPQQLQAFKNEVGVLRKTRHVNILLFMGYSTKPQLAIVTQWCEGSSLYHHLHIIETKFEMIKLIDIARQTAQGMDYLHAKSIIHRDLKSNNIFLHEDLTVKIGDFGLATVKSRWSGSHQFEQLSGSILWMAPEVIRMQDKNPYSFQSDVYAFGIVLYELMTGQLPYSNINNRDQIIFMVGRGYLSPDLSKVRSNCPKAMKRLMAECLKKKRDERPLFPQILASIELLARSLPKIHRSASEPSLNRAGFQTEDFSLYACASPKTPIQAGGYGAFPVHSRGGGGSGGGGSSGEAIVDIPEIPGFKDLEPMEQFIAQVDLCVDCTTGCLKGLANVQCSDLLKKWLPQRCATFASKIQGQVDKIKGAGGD

| SMILES | Time-dependent effect on reporter conformation (Rluc PCA signal) (wild type BRAF [1]; HEK293, 1 μM (FIG. 4)) | Effect on Gluc PCA luciferase signal / conformation (wild type BRAF [4]) | Effect on reporter luminescence signal (wild type BRAF [1]) | Effect on reporter bioluminescence signal / conformation (BRAF-V600E [2]) | Effect on reporter bioluminescence signal / conformation (BRAF V600K) | Effect on reporter bioluminescence signal / conformation (BRAF G469A) | Effect on reporter bioluminescence signal / conformation (BRAF D594G) | Effect on Gluc PCA luciferase signal / conformation (BRAF-V600E [3]) | Effect on reporter bioluminescence signal / conformation (BRAF V600R) | Time-dependent effect on reporter conformation (Rluc PCA signal) (BRAF-V600E [2]; BRAF-V600E reporter, up to 3 h (FIG. 4)) |
| --- | --- | --- | --- | --- | --- | --- | --- | --- | --- | --- |
| CC(C)(C)c1nc(-c2cccc(NS(=O)(=O)c3c(F)cccc3F)c2F)c(-c2ccnc(N)n2)s1 [dabrafenib] | – | – | only slight changes in the luminescence signal | shift to the closed conformation | – | – | – | – | – | – |
| COC(=O)N[C@@H](C)CNc1nccc(-c2cn(C(C)C)nc2-c2cc(Cl)cc(NS(C)(=O)=O)c2F)n1 [encorafenib] | – | – | only slight changes in the luminescence signal | shift to the closed conformation | – | – | – | – | – | – |
| O=C(c1c(F)ccc(NS(=O)(=O)N2CC[C@@H](F)C2)c1F)c1c[nH]c2ncc(-c3cnc(C4CC4)nc3)cc12 [PLX8394] | not affected | not affected | not susceptible; also recorded: only slight changes in the luminescence signal | significant shift to the closed conformation | significant shift to the closed conformation | significant shift to the closed conformation | significant shift to the closed conformation | enhanced the luciferase signal exclusively with the V600E BRAF mutant | significant shift to the closed conformation | immediate shift of the BRAF-V600E reporter to the closed conformation was observed increasing up to 3 h |
| COc1cc(F)c(F)c(Nc2ccc(I)cc2F)c1NS(=O)(=O)C1(C[C@H](O)CO)CC1 [refametinib] | – | – | only slight changes in the luminescence signal | exclusively influenced by the BRAF specific inhibitors | – | – | – | – | – | – |
| N#CC(=C(/N)Sc1ccccc1N)/C(C#N)=C(\N)Sc1ccccc1N [U0126] | – | – | only slight changes in the luminescence signal | exclusively influenced by the BRAF specific inhibitors | – | – | – | – | – | – |
